{
  "source": "a compilation of properties of binary mixtures (doi:10.1007/s10953-011-9788-x)",
  "assay": "xn = mol fraction of the nth substance listed",
  "conditions": "101 kPa",
  "data": [
    {"smiles": "CCCC[n+]1ccn(C)c1.N[C@@H](CCC(=O)O)C(=O)[O-]", "note": "+ CO", "values": [
      {"measurement": "viscosity", "setting": "298.15 K, x2 = 0.1087", "value": 59.8, "unit": "mPa·s"},
      {"measurement": "viscosity", "setting": "298.15 K, x2 = 0.4003", "value": 24.6, "unit": "mPa·s"},
      {"measurement": "viscosity", "setting": "298.15 K, x2 = 0.4998", "value": 16.4, "unit": "mPa·s"},
      {"measurement": "viscosity", "setting": "298.15 K, x2 = 0.6002", "value": 9.69, "unit": "mPa·s"},
      {"measurement": "viscosity", "setting": "298.15 K, x2 = 0.8001", "value": 2.31, "unit": "mPa·s"},
      {"measurement": "viscosity", "setting": "303.15 K, x2 = 0.1087", "value": 49.9, "unit": "mPa·s"},
      {"measurement": "viscosity", "setting": "303.15 K, x2 = 0.2002", "value": 39.6, "unit": "mPa·s"},
      {"measurement": "viscosity", "setting": "303.15 K, x2 = 0.2995", "value": 30.3, "unit": "mPa·s"},
      {"measurement": "viscosity", "setting": "303.15 K, x2 = 0.4003", "value": 22.2, "unit": "mPa·s"},
      {"measurement": "viscosity", "setting": "303.15 K, x2 = 0.4998", "value": 15.3, "unit": "mPa·s"},
      {"measurement": "viscosity", "setting": "303.15 K, x2 = 0.7", "value": 5.48, "unit": "mPa·s"},
      {"measurement": "viscosity", "setting": "303.15 K, x2 = 0.8001", "value": 2.82, "unit": "mPa·s"},
      {"measurement": "viscosity", "setting": "303.15 K, x2 = 0.9", "value": 1.48, "unit": "mPa·s"},
      {"measurement": "viscosity", "setting": "308.15 K, x2 = 0.1087", "value": 39.1, "unit": "mPa·s"},
      {"measurement": "viscosity", "setting": "308.15 K, x2 = 0.2002", "value": 31.2, "unit": "mPa·s"},
      {"measurement": "viscosity", "setting": "308.15 K, x2 = 0.2995", "value": 24.1, "unit": "mPa·s"},
      {"measurement": "viscosity", "setting": "308.15 K, x2 = 0.4003", "value": 18.1, "unit": "mPa·s"},
      {"measurement": "viscosity", "setting": "308.15 K, x2 = 0.4998", "value": 12.9, "unit": "mPa·s"},
      {"measurement": "viscosity", "setting": "308.15 K, x2 = 0.7", "value": 5.2, "unit": "mPa·s"},
      {"measurement": "viscosity", "setting": "308.15 K, x2 = 0.9", "value": 1.33, "unit": "mPa·s"},
      {"measurement": "viscosity", "setting": "313.15 K, x2 = 0.1087", "value": 31.6, "unit": "mPa·s"},
      {"measurement": "viscosity", "setting": "313.15 K, x2 = 0.2995", "value": 20, "unit": "mPa·s"},
      {"measurement": "viscosity", "setting": "313.15 K, x2 = 0.4003", "value": 15, "unit": "mPa·s"},
      {"measurement": "viscosity", "setting": "313.15 K, x2 = 0.4998", "value": 10.8, "unit": "mPa·s"},
      {"measurement": "viscosity", "setting": "313.15 K, x2 = 0.6002", "value": 7.3, "unit": "mPa·s"},
      {"measurement": "viscosity", "setting": "313.15 K, x2 = 0.8001", "value": 2.54, "unit": "mPa·s"},
      {"measurement": "viscosity", "setting": "313.15 K, x2 = 0.9", "value": 1.24, "unit": "mPa·s"}
    ]}
  ]
}
